In the supplement of paper PMC13380429:

What was measured:
[1] = tested on: Caco-2; assay: drug sensitivity score (DSS) for viability; higher = more toxic; extreme values may be limits of the assay; settings: 72 h
[2] = tested on: HepG2; assay: as above; settings: 72 h
[3] = tested on: Calu-3; assay: as above; settings: 72 h
[4] = tested on: Vero E6; assay: as above; settings: 72 h
[5] = tested on: U2OS; assay: as above; settings: 72 h
[6] = tested on: A549-ACE2; assay: drug-induced phospholipidosis relative to tamoxifen; higher = more phospholipidosis
[7] = tested on: Caco-2; assay: cell viability relative to DMSO; higher = less toxic; settings: 72 h
[8] = tested on: HepG2; assay: as above; settings: 72 h
[9] = tested on: Calu-3; assay: as above; settings: 72 h
[10] = tested on: Vero E6; assay: as above; settings: 72 h
[11] = tested on: U2OS; assay: as above; settings: 72 h
[12] = tested on: A549-ACE2 infected with SARS-CoV-2; assay: cell count relative to DMSO; higher = less toxic; settings: 24 h
[13] = tested on: A549-ACE2 infected with SARS-CoV-2; assay: morphology score (similarity to uninfected cells); higher = more like uninfected cells; settings: 24 h
[14] = tested on: A549-ACE2 infected with SARS-CoV-2; assay: SARS-CoV-2 infection rate relative to DMSO; higher = more infection; settings: 24 h
[15] = tested on: A549-ACE2; assay: phospholipidosis EC50; higher = less potent phospholipidosis inducer
[16] = tested on: HepG2; assay: relative viability EC50 (midpoint between 100% and the lowest measured viability); higher = less toxic; settings: 72 h
[17] = tested on: Calu-3; assay: as above; settings: 72 h
[18] = tested on: Caco-2; assay: as above; settings: 72 h
[19] = tested on: Vero E6; assay: as above; settings: 72 h
[20] = tested on: U2OS; assay: as above; settings: 72 h

CCCCN1[C@@H]2CC[C@H]1C[C@@H](OC(c1ccc(F)cc1)c1ccc(F)cc1)C2 [JHW-007]
Settings | drug sensitivity score | relative viability EC50 [µM]
[1] | 4.8 | –
[2] | 3.2 | –
[3] | 4.5 | –
[4] | 1.9 | –
[5] | 2.4 | –
[16] | – | 3.44
[17] | – | 2.8

drug-induced phospholipidosis [%], [6]
Settings | 0.3 µM | 0.833333 µM | 3.33333 µM | 6.66667 µM | 10 µM
24 h | 6 | 18.5 | 80.2 | 92.2 | 90
48 h | 6.06 | 12.4 | 63.9 | 99 | 103
72 h | 9.39 | 14.6 | 61.5 | 99.8 | 110

Settings | SARS-CoV-2 infection rate [%] | cell count [%] | cell viability [%] | morphology score | phospholipidosis EC50 [µM]
[7], 1 nM | – | – | 98.9 | – | –
[7], 10 nM | – | – | 98.3 | – | –
[7], 100 nM | – | – | 102 | – | –
[7], 1000 nM | – | – | 76 | – | –
[7], 10000 nM | – | – | 61.2 | – | –
[8], 1 nM | – | – | 96.6 | – | –
[8], 10 nM | – | – | 95.1 | – | –
[8], 100 nM | – | – | 96 | – | –
[8], 1000 nM | – | – | 103 | – | –
[8], 10000 nM | – | – | 36.1 | – | –
[9], 1 nM | – | – | 96.8 | – | –
[9], 10 nM | – | – | 96.8 | – | –
[9], 100 nM | – | – | 98.4 | – | –
[9], 1000 nM | – | – | 96.6 | – | –
[9], 10000 nM | – | – | 28 | – | –
[10], 1 nM | – | – | 102 | – | –
[10], 10 nM | – | – | 104 | – | –
[10], 100 nM | – | – | 100 | – | –
[10], 1000 nM | – | – | 99.3 | – | –
[10], 10000 nM | – | – | 61.8 | – | –
[11], 1 nM | – | – | 102 | – | –
[11], 10 nM | – | – | 97.9 | – | –
[11], 100 nM | – | – | 99.9 | – | –
[11], 1000 nM | – | – | 91.9 | – | –
[11], 10000 nM | – | – | 70.6 | – | –
[12], 0.1 µM | – | 102 | – | – | –
[12], 0.3 µM | – | 106 | – | – | –
[12], 1 µM | – | 114 | – | – | –
[12], 3 µM | – | 116 | – | – | –
[13], 0.1 µM | – | – | – | 0.03 | –
[13], 0.3 µM | – | – | – | 0.4 | –
[13], 1 µM | – | – | – | 0.72 | –
[13], 3 µM | – | – | – | 0.93 | –
[14], 0.1 µM | 103 | – | – | – | –
[14], 0.3 µM | 85 | – | – | – | –
[14], 1 µM | 58 | – | – | – | –
[14], 3 µM | 20 | – | – | – | –
[15], 24 h | – | – | – | – | 1.59
[15], 48 h | – | – | – | – | 3.06
[15], 72 h | – | – | – | – | 3.56

CCn1c2ccccc2c2cc(CNC)ccc21 [PhiKan-083]
Settings | drug sensitivity score | relative viability EC50 [µM]
[1] | 0 | –
[2] | 1.5 | –
[3] | 0 | –
[4] | 0 | –
[5] | 0 | –
[17] | – | > 10
[18] | – | > 10
[19] | – | > 10
[20] | – | > 10

drug-induced phospholipidosis [%], [6]
Settings | 0.3 µM | 0.833333 µM | 3.33333 µM | 6.66667 µM | 10 µM | 30 µM
24 h | 2.5 | 2.35 | 26.5 | 64.2 | 83.4 | 97.2
48 h | 3.59 | 3.69 | 21.8 | 58.2 | 75.7 | 99.9
72 h | 3.02 | 2.71 | 17.3 | 49 | 70.8 | 95.9

Settings | SARS-CoV-2 infection rate [%] | cell count [%] | cell viability [%] | morphology score | phospholipidosis EC50 [µM]
[7], 1 nM | – | – | 102 | – | –
[7], 10 nM | – | – | 100 | – | –
[7], 100 nM | – | – | 102 | – | –
[7], 1000 nM | – | – | 105 | – | –
[7], 10000 nM | – | – | 108 | – | –
[8], 1 nM | – | – | 98.2 | – | –
[8], 10 nM | – | – | 106 | – | –
[8], 100 nM | – | – | 97.4 | – | –
[8], 1000 nM | – | – | 99.3 | – | –
[8], 10000 nM | – | – | 68.3 | – | –
[9], 1 nM | – | – | 96.2 | – | –
[9], 10 nM | – | – | 99.9 | – | –
[9], 100 nM | – | – | 105 | – | –
[9], 1000 nM | – | – | 97.6 | – | –
[9], 10000 nM | – | – | 103 | – | –
[10], 1 nM | – | – | 98.5 | – | –
[10], 10 nM | – | – | 103 | – | –
[10], 100 nM | – | – | 98.7 | – | –
[10], 1000 nM | – | – | 99.9 | – | –
[10], 10000 nM | – | – | 90.8 | – | –
[11], 1 nM | – | – | 99.4 | – | –
[11], 10 nM | – | – | 100 | – | –
[11], 100 nM | – | – | 99.2 | – | –
[11], 1000 nM | – | – | 99.7 | – | –
[11], 10000 nM | – | – | 98.8 | – | –
[12], 0.3 µM | – | 103 | – | – | –
[12], 3 µM | – | 105 | – | – | –
[12], 10 µM | – | 117 | – | – | –
[12], 30 µM | – | 119 | – | – | –
[13], 0.3 µM | – | – | – | 0.23 | –
[13], 3 µM | – | – | – | 0.46 | –
[13], 10 µM | – | – | – | 0.75 | –
[13], 30 µM | – | – | – | 0.82 | –
[14], 0.3 µM | 94 | – | – | – | –
[14], 3 µM | 79 | – | – | – | –
[14], 10 µM | 51 | – | – | – | –
[14], 30 µM | 16 | – | – | – | –
[15], 24 h | – | – | – | – | 5.19
[15], 48 h | – | – | – | – | 6.25
[15], 72 h | – | – | – | – | 6.91
